Laboratory results published in article PMC7801115, “Preclinical in vitro screening of newly synthesised amidino substituted benzimidazoles and benzothiazoles” (Journal of Enzyme Inhibition and Medicinal Chemistry, 2021).

Tests used:
[1] = system: A549; test: BrdU proliferation assay, 2D cell culture; format: cell-based; details: Homo sapiens, A549, 2D cell culture, ±SD, N = 2
Experimental: Cells were grown in 96 well cell star polystyrene plates. 10,000 cells/well were seeded in wells 4 h prior the treatment with different compounds concentrations and incubated for 72 h. A cell viability assay was performed according to the manufacturer’s instruction, using CellTiter 96 aqueous solution, MTS kit (Promega, Madison, WI, USA). After 0.5–2 h of cell incubation with MTS in 2 D cell culture, the plates were read using PE EnVision absorbance at 490 nm. The results for each of tested compounds are reported as growth percentages from two independent concentrations curves compared with the untreated control cells after drug exposure. Since we prefer homogeneous assays (mix and read procedures) and therefore MTS is more practical (one step less than MTT). MTS is more sensitive and accurate in comparison with MTT assay.
Proliferation assay was performed using Cell Proliferation ELISA, BrdU (Sigma, St. Louis, MO, USA). Briefly, 48 h hours after compound addition, 10 µM of BrdU was added to each well and incubated for following 24 h. After incubation, single cell suspension was made for 3 D cell culture in the new 96 well plate. Plates were centrifuged and supernatants were removed from each plate (for 2 D and 3 D cell culture) followed by 60 min incubation at 60° C. The rest of the proliferation assay was performed according to the manufacturer instructions.
Calculation of IC50 data, curves and QC analysis is made by using Excel tools and GraphPadPrism software (La Jolla, CA), v. 5.03. In brief, individual concentration–effect curves are generated by plotting the logarithm of the tested concentration of tested compounds (X) versus corresponding percent inhibition values (Y) using least squares (ordinary) fit. […] QC criteria parameters (Z', S:B, R2, HillSlope) were checked for every IC50 curve.

[2] = system: MDCKII-hMDR1 cells; test: MDCKII-MDR1 permeability and P-glycoprotein substrate assay; format: in vitro ADME, canine cells over-expressing human MDR1; details: without P-gp inhibitor
Experimental: Permeability and P-glycoprotein substrate assessment was done on MDCKII-hMDR1, Madin-Darby canine epithelial cells over-expressing human MDR1 gene, coding for P-glycoprotein.
Cells were prepared for transport studies by seeding on 96-well cell culture inserts (Millipore, MA, USA) in a concentration of 0.25 × 10^6 cells per ml. The cells were fed with fresh medium 24 h post seeding and cultured to confluence for 3 days before use. On the day of experiment, the cell monolayers were washed and equilibrated with transport medium (DPBS, pH 7.4 containing 1% DMSO) with or without P-gp specific inhibitor, elacridar (2 µM) for 45 min (37 °C, 5% CO2, 95% humidity). Test compound solution consisted of test substance (10 μM) in D-PBS medium containing lucifer yellow (100 μM) and 1% DMSO. Transport assays were conducted in apical to basolateral (A2B) and basolateral to apical (B2A) directions, respectively. Monolayers were incubated with the compound solution for 60 min at 37 °C under gentle agitation. Apical and basolateral compartments were sampled at the end of the transport experiment, while donor solutions were also sampled at the beginning of the experiment in order to determine initial concentration. Test substance concentrations in both compartments were determined by LC-MS/MS. There were several controls used in the assay: 1) amprenavir (0.5 μM) served as a low permeable control, being also a P-gp substrate; 2) diclofenac (10 μM) was used as a high permeable control; 3) Lucifer yellow, a fluorescent marker for the paracellular membrane transport, was used as a control of cell monolayer integrity.
All ADME samples were analysed on a Sciex API 4000 or Sciex API4500 Triple Quadrupole Mass Spectrometer (Sciex, Framingham, MA, USA) coupled to a UHPLC System (Shimadzu Nexera X2; Shimadzu, Kyoto, Japan). Samples were injected onto an UPLC column (HALO2 C18, 2.1 × 20 mm, 2 µm or Phenomenex Luna Omega Polar C18, 30 × 2.1 mm, 1.6 µm) and eluted with a gradient at temperature of 50 °C. The mobile phase was composed of acetonitrile (with 0.1% formic acid) and 0.1% formic acid in deionised water. A total run time was 1 or 1.5 min, with the flow rate of 0.7 ml/min (under gradient conditions). A positive ion mode with turbo spray, an ion source temperature of 500 °C and a dwell time of 150 ms were utilised for mass spectrometric detection. Multiple reaction monitoring (MRM) was used at the specific transitions for each compound/control tested: compound 5c: 361.9 → 304.9; compound 5d: 344.8 → 287.9; compound 5e: 349.8 → 292.9; compound 5 g: 350.8 → 293.9; compound 5 h: 344.0 → 286.9; compound 6a: 276.9 → 220.0; compound 5 b: 319.0 → 262.0; compound 6 b: 302.1 → 245.1; compound 6c: 344.9 → 288.0; compound 6d: 333.0 → 276.0; compound 6e: 316.1 → 259.0; compound 6f: 327.1 → 270.0; compound 6 g: 377.1 → 320.1; testosterone: 289.3→ 97.1; propranolol: 260.1 → 182.8; caffeine: 195.2 → 138.1; acebutolol: 337.2 → 116.2, nicardipine: 480.2 → 315.0; verapamil: 455.4 → 165.1; amprenavir: 506.2 → 245.4; diclofenac: 296.1 → 213.7 or 296.2 → 215.3; eucatropine: 292.2 → 109.1; benfluorex: 352.1 → 230.3, and warfarin: 309.2 → 163.2

Row | IC50 [1] | melting point | MDCKII-MDR1 Efflux ratio [2] | Compound
1 | > 50 µM | > 300 °C | – | Cl.N#Cc1ccc(-c2nc3ccc(C4=NCCCN4)cc3s2)cc1 [Compound 5b, 2–(4-Cyanophenyl)-6–(3,4,5,6-tetrahydropyrimidin-1-ium-2-yl)benzothiazole chloride]
2 | 48 ± 0.73 µM | 279 to 283 °C | – | Cl.FC(F)(F)c1ccc(-c2nc3ccc(C4=NCCCN4)cc3s2)cc1 [Compound 5c, 2–(4-Trifluoromethylphenyl)-6–(3,4,5,6-tetrahydropyrimidin-1-ium-2-yl)benzothiazole chloride]
3 | 1 µM | > 300 °C | – | Cl.c1ccc2nc(-c3nc4ccc(C5=NCCCN5)cc4s3)ccc2c1 [Compound 5d, 2-(Quinoline-2-yl)-6–(3,4,5,6-tetrahydropyrimidin-1-ium-2-yl)benzothiazole chloride]
4 | 16 ± 0.39 µM | > 300 °C | – | Cl.c1ccc2sc(-c3nc4ccc(C5=NCCCN5)cc4s3)cc2c1 [Compound 5e, 2-(Benzo[b]thiophen-2-yl)-6–(3,4,5,6-tetrahydropyrimidin-1-ium-2-yl)benzothiazole chloride]
5 | 7 ± 2.31 µM | > 300 °C | – | Cl.c1ccc2sc(-c3nc4ccc(C5=NCCCN5)cc4s3)nc2c1 [Compound 5g, 2-(Benzothiazole-2-yl)-6–(3,4,5,6-tetrahydropyrimidin-1-ium-2-yl)benzothiazole chloride]
6 | 10 ± 0.78 µM | > 300 °C | – | Cl.c1ccc2cc(-c3nc4ccc(C5=NCCCN5)cc4s3)ccc2c1 [Compound 5h, 2-(Naphthalene-2-yl)-6–(3,4,5,6-tetrahydropyrimidin-1-ium-2-yl)benzothiazole chloride]
7 | 11 ± 5.56 µM | – | – | c1ccc(-c2nc3cc(C4=NCCCN4)ccc3[nH]2)cc1 [Compound 6a, 2-Phenyl-5(6)–(3,4,5,6-tetrahydropyrimidin-1-ium-2-yl)benzimidazole chloride]
8 | > 50 µM | – | 1.13 | N#Cc1ccc(-c2nc3cc(C4=NCCCN4)ccc3[nH]2)cc1 [Compound 6b, 2–(4-Cyanophenyl)-5(6)–(3,4,5,6-tetrahydropyrimidin-1-ium-2-yl)benzimidazole chloride]
9 | > 50 µM | – | – | FC(F)(F)c1ccc(-c2nc3cc(C4=NCCCN4)ccc3[nH]2)cc1 [Compound 6c, 2–(4-Trifluoromethylphenyl)-5(6)–(3,4,5,6-tetrahydropyrimidin-1-ium-2-yl)benzimidazole chloride]
10 | > 50 µM | – | – | c1ccc2sc(-c3nc4cc(C5=NCCCN5)ccc4[nH]3)cc2c1 [Compound 6d, 2-(Benzo[b]thiophen-2-yl)-5(6)–(3,4,5,6-tetrahydropyrimidin-1-ium-2-yl)benzimidazole chloride]
11 | > 50 µM | – | – | c1ccc2c(-c3nc4ccc(C5=NCCCN5)cc4[nH]3)c[nH]c2c1 [Compound 6e, 2-(1H-Indol-3-yl)-5(6)–(3,4,5,6-tetrahydropyrimidin-1-ium-2-yl)benzimidazole chloride]
12 | > 50 µM | – | – | c1ccc2cc(-c3nc4cc(C5=NCCCN5)ccc4[nH]3)ccc2c1 [Compound 6f, 2-(Naphthalene-2-yl)-5(6)–(3,4,5,6-tetrahydropyrimidin-1-ium-2-yl)benzimidazole chloride]

Row | Compound | IC50 [1] | melting point | MDCKII-MDR1 Efflux ratio [2]
13 | c1ccc2c(c1)cc(-c1nc3cc(C4=NCCCN4)ccc3[nH]1)c1ccccc12 [Compound 6g, 2-(Phenanthrene-9-yl)-5(6)–(3,4,5,6-tetrahydropyrimidin-1-ium-2-yl)benzimidazole chloride] | > 50 µM | – | –
